Data: BindingDB's records for doi:10.7270/Q25H7DRT (Nmmlsc, 2010)

Target: T1, Citrate synthase, peroxisomal [1-24] (Saccharomyces cerevisiae, UniProt P08679)
T1 construct: 1-24
Experiment: yeast TOR pathway CIT2-GFP reporter potency – flow cytometry, MLPCN hits, dose response (AID 2744)

T1 sequence (P08679 1-24): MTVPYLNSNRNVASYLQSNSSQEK

Row | Compound | EC50 [µM]
1 | ClC(Cl)(c1nnnn1-c1ccccc1)c1nnnn1-c1ccccc1 [SMR000173835] | > 33
2 | O=C(Nc1ccccc1)ON=C1CCCC1 [cyclopentanone O-(anilinocarbonyl)oxime] | > 33
